Measured values reported in PubChem BioAssay AID248 (DTP/NCI, 2004).
Several values for one entry are separate records, joined by “and”; a condition that tells them apart may be missing. Identical values can stand only once. Inconclusive results and toxic doses are left out. Rule as the data show it: active = T/C of 150% or more; inactive = T/C below 125%.

Test system: L1210 leukemia ip in BDF1 mice, survival T/C
Test: NCI In Vivo Anticancer Drug Screen. Data for tumor model L1210 Leukemia (intraperitoneal) in B6D2F1 (BDF1) mice
Conditions: endpoint: mean survival time, higher = longer survival
Outline: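 Each compound was tested against a transplantable tumor grown in mice. The endpoint was survival, with treated animals benchmarked against vehicle controls as a simple ratio.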

[1] = dose: 50.0 mg/kg/injection, schedule: Q01DX009 (ip), vehicle: saline with Tween-80
[2] = dose: 100.0 mg/kg/injection, schedule: Q04DX003 (ip), vehicle: saline with Tween-80
[3] = dose: 100.0 mg/kg/injection, schedule: Q01DX009 (ip), vehicle: saline with Tween-80

Measured: T/C

O=C(CNC(=O)NCc1ccccc1)N/N=C/c1cccc([N+](=O)[O-])c1
inactive: dose: 12.5 mg/kg/injection, schedule: Q01DX009 (ip), vehicle: saline with Tween-80 91 % of control | dose: 25.0 mg/kg/injection, schedule: Q01DX009 (ip), vehicle: saline with Tween-80 88 % of control | [1] 92 % of control and 88 % of control

CCS(=O)(=O)/C=C(\C(=O)c1ccccc1)c1ccccc1
inactive: dose: 100.0 mg/kg/injection, schedule: Q01DX009 (ip), vehicle: Klucel (hydroxypropylcellulose) (HPC) 98 % of control | dose: 200.0 mg/kg/injection, schedule: Q01DX009 (ip), vehicle: Klucel (hydroxypropylcellulose) (HPC) 97 % of control | dose: 400.0 mg/kg/injection, schedule: Q01DX009 (ip), vehicle: Klucel (hydroxypropylcellulose) (HPC) 93 % of control

O=C(NNC(=O)OCC(Cl)(Cl)Cl)OCC(Cl)(Cl)Cl
inactive: dose: 25.0 mg/kg/injection, schedule: Q04DX002 (ip), vehicle: saline with Tween-80 90 % of control | dose: 50.0 mg/kg/injection, schedule: Q04DX002 (ip), vehicle: saline with Tween-80 87 % of control

Nc1ccc(N=Nc2ccc(S(N)(=O)=O)cc2)c(N)n1
inactive: dose: 100.0 mg/kg/injection, schedule: Q01DX001 (ip), vehicle: saline 107 % of control | dose: 200.0 mg/kg/injection, schedule: Q01DX001 (ip), vehicle: saline 114 % of control | dose: 400.0 mg/kg/injection, schedule: Q01DX001 (ip), vehicle: saline 104 % of control

CCC1(CC)C=CC(Br)CC1(CC)CC (stereo unspecified)
inactive: [2] 103 % of control | dose: 200.0 mg/kg/injection, schedule: Q04DX003 (ip), vehicle: saline with Tween-80 101 % of control | dose: 400.0 mg/kg/injection, schedule: Q04DX003 (ip), vehicle: saline with Tween-80 101 % of control

CCOC(=O)c1nn(C)c(=S)[nH]c1=O
inactive: dose: 100.0 mg/kg/injection, schedule: Q01DX Z (ip), vehicle: methylcellulose (MC) 92 % of control | dose: 200.0 mg/kg/injection, schedule: Q01DX Z (ip), vehicle: methylcellulose (MC) 90 % of control

Nc1ncnc(N)c1NC(=O)c1ccc(C(=O)c2cccc([N+](=O)[O-])c2)cc1
inactive: dose: 100.0 mg/kg/injection, schedule: Q01DX001 (ip), vehicle: gum acacia 97 % of control | dose: 200.0 mg/kg/injection, schedule: Q01DX001 (ip), vehicle: gum acacia 100 % of control | dose: 400.0 mg/kg/injection, schedule: Q01DX001 (ip), vehicle: gum acacia 93 % of control

CN=C1C=C(NC)C(F)(F)C1(F)F
inactive: dose: 6.25 mg/kg/injection, schedule: Q01DX009 (ip), vehicle: saline sonified 96 % of control | dose: 12.5 mg/kg/injection, schedule: Q01DX009 (ip), vehicle: saline sonified 100 % of control | dose: 12.5 mg/kg/injection, schedule: Q04DX003 (ip), vehicle: Klucel (hydroxypropylcellulose) (HPC) 98 % of control | dose: 25.0 mg/kg/injection, schedule: Q01DX009 (ip), vehicle: saline sonified 91 % of control | dose: 25.0 mg/kg/injection, schedule: Q04DX003 (ip), vehicle: Klucel (hydroxypropylcellulose) (HPC) 98 % of control | dose: 50.0 mg/kg/injection, schedule: Q04DX003 (ip), vehicle: Klucel (hydroxypropylcellulose) (HPC) 97 % of control

CN1CSC(=S)N(Cc2ccccc2)C1
inactive: dose: 100.0 mg/kg/injection, schedule: Q04DX002 (ip), vehicle: saline with Tween-80 94 % of control | dose: 200.0 mg/kg/injection, schedule: Q04DX002 (ip), vehicle: saline with Tween-80 97 % of control | dose: 400.0 mg/kg/injection, schedule: Q04DX002 (ip), vehicle: saline with Tween-80 105 % of control

O=c1ccc2nc3ccccc3sc-2c1
inactive: [2] 89 % of control

O=C1CCC2c3ccccc3-c3cccc1c32 (stereo unspecified)
inactive: dose: 50.0 mg/kg/injection, schedule: Q01DX001 (ip), vehicle: carboxymethylcellulose (CMC) 100 % of control | dose: 100.0 mg/kg/injection, schedule: Q01DX001 (ip), vehicle: carboxymethylcellulose (CMC) 91 % of control | dose: 200.0 mg/kg/injection, schedule: Q01DX001 (ip), vehicle: carboxymethylcellulose (CMC) 96 % of control | dose: 400.0 mg/kg/injection, schedule: Q01DX001 (ip), vehicle: carboxymethylcellulose (CMC) 102 % of control

O=C(CNC(=O)Nc1nccs1)N/N=C/c1ccc(Cl)cc1
inactive: [1] 106 % of control | [3] 89 % of control

Cn1c(CCl)nc2c1c(=O)[nH]c(=O)n2C
inactive: dose: 100.0 mg/kg/injection, schedule: Q01DX001 (ip), vehicle: other 95 % of control

COc1ccc(Cl)cc1NC(=O)Oc1ccc(-c2ccccc2)cc1Cl
inactive: [3] 99 % of control | dose: 200.0 mg/kg/injection, schedule: Q01DX009 (ip), vehicle: saline with Tween-80 92 % of control | dose: 400.0 mg/kg/injection, schedule: Q01DX009 (ip), vehicle: saline with Tween-80 91 % of control

O=C1N(CO)C2C(N1CO)N(CO)C(=O)N2CO (stereo unspecified)
inactive: dose: 44.0 mg/kg/injection, schedule: Q04DX003 (ip), vehicle: saline 100 % of control | dose: 66.0 mg/kg/injection, schedule: Q04DX003 (ip), vehicle: saline 103 % of control | dose: 100.0 mg/kg/injection, schedule: Q01DX009 (ip), vehicle: saline 118 % of control | dose: 100.0 mg/kg/injection, schedule: Q04DX003 (ip), vehicle: saline 103 % of control | dose: 150.0 mg/kg/injection, schedule: Q04DX003 (ip), vehicle: saline 102 % of control | dose: 200.0 mg/kg/injection, schedule: Q01DX009 (ip), vehicle: saline 113 % of control | dose: 200.0 mg/kg/injection, schedule: Q04DX003 (ip), vehicle: saline 115 % of control | dose: 400.0 mg/kg/injection, schedule: Q01DX009 (ip), vehicle: saline 116 % of control | dose: 400.0 mg/kg/injection, schedule: Q04DX003 (ip), vehicle: saline 114 % of control

CC(=O)OC1CCC2(C)C(CCC3(C)C2CC=C2C4C(C)C(C)CCC4(C)CCC23C)C1(C)C (stereo unspecified)
inactive: dose: 100.0 mg/kg/injection, schedule: Q04DX003 (ip), vehicle: Klucel (hydroxypropylcellulose) (HPC) 91 % of control | dose: 200.0 mg/kg/injection, schedule: Q04DX003 (ip), vehicle: Klucel (hydroxypropylcellulose) (HPC) 88 % of control | dose: 400.0 mg/kg/injection, schedule: Q04DX003 (ip), vehicle: Klucel (hydroxypropylcellulose) (HPC) 90 % of control
